Laboratory results: ChEMBL document CHEMBL3779781, “New direct inhibitors of InhA with antimycobacterial activity based on a tetrahydropyran scaffold” (Eur J Med Chem, 2016)
Converted amounts (≈) assume the structure as drawn.

Tests used:
[1] = system: Mycobacterium tuberculosis; assay: Antimycobacterial activity against Mycobacterium bovis BCG after 2 weeks; assay type: functional; conditions: variant bovis BCG, 336 h
[2] = system: Mycobacterium tuberculosis; assay: Antimycobacterial activity against Mycobacterium bovis BCG overexpressing InhA after 2 weeks; assay type: functional; conditions: variant bovis BCG, 336 h
[3] = system: Mycobacterium tuberculosis; assay: Ratio of MIC for Mycobacterium bovis BCG overexpressing InhA to MIC for Mycobacterium bovis BCG; assay type: functional, variant bovis BCG

| Compound | MIC [1] [µg/mL] | MIC [2] [µg/mL] | Ratio [3] |
| --- | --- | --- | --- |
| Cc1cc(C)n(Cc2ccc(C(=O)NCC3(c4nc(-c5ccccc5)cs4)CCOCC3)cc2)n1 | 7.8 (≈ 16 µM) | 31.3 (≈ 64.3 µM) | 4 |
| NNC(=O)c1ccncc1 [ISONIAZID] | 0.75 (≈ 5.47 µM) | > 16 | >21 |
| NC[C@H]1O[C@H](O[C@H]2[C@H](O)[C@@H](O[C@H]3O[C@H](CO)[C@@H](O)[C@H](N)[C@H]3O)[C@H](N)C[C@@H]2N)[C@H](O)[C@@H](O)[C@@H]1O [KANAMYCIN] | 0.6 (≈ 1.24 µM) | 0.6 (≈ 1.24 µM) | 1 |
